The values below come from US8754089B2, “Heterocyclic compounds and their uses” (Amgen Inc., priority 2009, dated 2014).

PI3Kδ, sequence (O00329 whole entry): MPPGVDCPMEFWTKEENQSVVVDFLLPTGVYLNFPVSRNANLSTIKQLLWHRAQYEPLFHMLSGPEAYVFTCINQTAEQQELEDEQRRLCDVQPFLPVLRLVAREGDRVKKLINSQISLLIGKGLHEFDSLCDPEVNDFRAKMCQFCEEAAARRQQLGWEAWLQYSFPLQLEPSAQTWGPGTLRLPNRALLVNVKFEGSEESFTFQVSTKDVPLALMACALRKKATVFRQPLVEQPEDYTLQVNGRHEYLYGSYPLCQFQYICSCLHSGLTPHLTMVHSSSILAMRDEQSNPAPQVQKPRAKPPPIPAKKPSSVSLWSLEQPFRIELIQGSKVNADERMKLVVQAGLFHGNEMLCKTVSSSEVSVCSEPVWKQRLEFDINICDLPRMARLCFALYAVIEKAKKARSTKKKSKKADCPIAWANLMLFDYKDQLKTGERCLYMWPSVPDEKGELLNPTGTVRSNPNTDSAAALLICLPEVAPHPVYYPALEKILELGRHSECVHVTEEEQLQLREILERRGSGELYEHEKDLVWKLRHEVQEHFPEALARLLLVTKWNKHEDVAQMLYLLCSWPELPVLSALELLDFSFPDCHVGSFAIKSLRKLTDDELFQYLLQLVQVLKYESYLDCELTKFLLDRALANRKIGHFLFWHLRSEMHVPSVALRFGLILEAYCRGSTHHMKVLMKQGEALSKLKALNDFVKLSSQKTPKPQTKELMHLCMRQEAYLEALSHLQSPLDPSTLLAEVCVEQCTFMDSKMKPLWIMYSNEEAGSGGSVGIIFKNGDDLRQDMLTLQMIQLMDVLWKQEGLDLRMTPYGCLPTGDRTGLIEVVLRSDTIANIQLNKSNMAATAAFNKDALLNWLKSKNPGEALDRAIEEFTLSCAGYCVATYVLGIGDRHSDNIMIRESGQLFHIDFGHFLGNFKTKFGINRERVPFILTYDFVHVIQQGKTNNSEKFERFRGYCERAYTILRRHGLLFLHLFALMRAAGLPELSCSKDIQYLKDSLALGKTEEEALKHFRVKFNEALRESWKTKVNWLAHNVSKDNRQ
PI3Kδ, sequence (P27986 whole entry partner): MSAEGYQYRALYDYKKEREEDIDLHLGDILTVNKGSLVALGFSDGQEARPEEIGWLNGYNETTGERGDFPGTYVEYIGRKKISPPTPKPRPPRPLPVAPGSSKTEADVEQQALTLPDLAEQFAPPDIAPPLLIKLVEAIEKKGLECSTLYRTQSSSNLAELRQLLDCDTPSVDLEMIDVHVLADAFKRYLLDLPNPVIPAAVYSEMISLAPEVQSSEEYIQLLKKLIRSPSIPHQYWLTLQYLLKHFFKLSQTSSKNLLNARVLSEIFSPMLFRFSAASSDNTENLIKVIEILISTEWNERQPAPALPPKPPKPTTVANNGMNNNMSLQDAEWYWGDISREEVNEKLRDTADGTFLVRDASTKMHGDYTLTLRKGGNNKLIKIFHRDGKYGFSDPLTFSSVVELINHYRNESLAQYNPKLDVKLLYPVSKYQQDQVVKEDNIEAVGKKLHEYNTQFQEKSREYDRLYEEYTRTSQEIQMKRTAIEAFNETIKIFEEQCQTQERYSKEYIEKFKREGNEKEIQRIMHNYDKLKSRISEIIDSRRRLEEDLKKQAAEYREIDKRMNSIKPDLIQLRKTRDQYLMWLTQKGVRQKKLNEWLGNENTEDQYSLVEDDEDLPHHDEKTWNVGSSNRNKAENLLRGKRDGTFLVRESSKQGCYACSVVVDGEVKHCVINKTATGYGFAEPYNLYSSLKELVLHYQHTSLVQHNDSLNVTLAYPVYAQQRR

This assay deals with PI3Kδ (Homo sapiens (Human), UniProt O00329). Nature of the assay: PI3Kδ Alphascreen assay. It is filed as biochemical. The procedure:
Full length p110 subunits of PI3k α, β and δ, N-terminally labeled with polyHis tag, were coexpressed with p85 with Baculo virus expression vectors in sf9 insect cells. P110/p85 heterodimers were purified by sequential Ni-NTA, Q-HP, Superdex-100 chromatography. Purified α, β and δ isozymes were stored at −20° C. in 20 mM Tris, pH 8, 0.2M NaCl, 50% glycerol, 5 mM DTT, 2 mM Na cholate. […] The y isozyme was purified by sequential Ni-NTA, Superdex-200, Q-HP chromatography. The γ isozyme was stored frozen at −80° C. in NaH2PO4, pH 8, 0.2M NaCl, 1% ethylene glycol, 2 mM β-mercaptoethanol.
A PI3K Alphascreen® assay (PerkinElmer, Waltham, Mass.) was used to measure the activity of a panel of four phosphoinositide 3-kinases: PI3Kα, PI3Kβ, PI3Kγ, and PI3Kδ. Enzyme reaction buffer was prepared using sterile water (Baxter, Deerfield, Ill.) and 50 mM Tris HCl pH 7, 14 mM MgCl2, 2 mM sodium cholate, and 100 mM NaCl. 2 mM DTT was added fresh the day of the experiment. The Alphascreen buffer was made using sterile water and 10 mM Tris HCl pH 7.5, 150 mM NaCl, 0.10% Tween 20, and 30 mM EDTA. 1 mM DTT was added fresh the day of the experiment. Compound source plates used for this assay were 384-well Greiner clear polypropylene plates containing test compounds at 5 mM and diluted 1:2 over 22 concentrations. Columns 23 and 24 contained only DMSO as these wells comprised the positive and negative controls, respectively. Source plates were replicated by transferring 0.5 uL per well into 384-well Optiplates (PerkinElmer, Waltham, Mass.).
Each PI3K isoform was diluted in enzyme reaction buffer to 2× working stocks. […] PI(4,5)P2 (Echelon Biosciences, Salt Lake City, Utah) was diluted to 10 μM and ATP was diluted to 20 μM. This 2× stock was used in the assays for PI3Kα and PI3Kβ. For assay of PI3Kγ and PI3Kδ, PI(4,5)P2 was diluted to 10 μM and ATP was diluted to 8 μM to prepare a similar 2× working stock. Alphascreen reaction solutions were made using beads from the anti-GST Alphascreen kit (PerkinElmer, Waltham, Mass.). Two 4× working stocks of the Alphascreen reagents were made in Alphascreen reaction buffer. In one stock, biotinylated-IP4 (Echelon Biosciences, Salt Lake City, Utah) was diluted to 40 nM and streptavadin-donor beads were diluted to 80 μg/mL. In the second stock, PIP3-binding protein (Echelon Biosciences, Salt Lake City, Utah) was diluted to 40 nM and anti-GST-acceptor beads were diluted to 80 μg/mL.
10 μL/well of the appropriate substrate 2× stock (containing 20 μM ATP for the PI3Kα and β assays and containing 8 μM ATP for the PI3Kγ and δ assays) was then added to Columns 1-24 of all plates. Plates were then incubated at room temperature for 20 minutes. In the dark, 10 μL/well of the donor bead solution was added to columns 1-24 of the plates to quench the enzyme reaction. The plates were incubated at room temperature for 30 minutes. Still in the dark, 10 μL/well of the acceptor bead solution was added to columns 1-24 of the plates. The plates were then incubated in the dark for 1.5 hours. The plates were read on an Envision multimode Plate Reader (PerkinElmer, Waltham, Mass.) using a 680 nm excitation filter and a 520-620 nm emission filter.
A general note: In Alpha technology, singlet oxygen from a donor bead excites a nearby acceptor bead.
The Ki is the dissociation constant of the complex between target and ligand, obtained from inhibition or displacement. `C[C@@H](Nc1ncnc(N)c1C#N)c1nc2ccccn2c(=O)c1-c1cccc(F)c1` [4-Amino-6-(((1R)-1-(3-(3-fluorophenyl)-4-oxo-4H-pyrido[1,2-a]pyrimidin-2-yl)ethyl)amino)-5-pyrimidinecarbonitrile] yielded an inhibitory constant (Ki) of 1.88 µM.
The value for `CC(Nc1ncnc(N)c1C#N)c1c(-c2cc(F)cc(F)c2)c(=O)c2cc(F)ccc2n1C` (stereo not shown) [4-amino-6-((1-(3-(3,5-difluorophenyl)-6-fluoro-1-methyl-4-oxo-1,4-dihydro-2-quinolinyl)ethyl)amino)-5-pyrimidinecarbonitrile] was 0.033 µM; that for `C[C@@H](Nc1ncnc(N)c1C#N)c1nc2ccccn2c(=O)c1-c1ccccc1S(C)(=O)=O` [4-amino-6-(((1R)-1-(3-(2-(methylsulfonyl)phenyl)-4-oxo-4H-pyrido[1,2-a]pyrimidin-2-yl)ethyl)amino)-5-pyrimidinecarbonitrile] was 24.6 µM.
The value for `C[C@@H](Nc1ncnc(N)c1C#N)c1nc2ccccn2c(=O)c1-c1cc(F)cc(F)c1` [4-amino-6-(((1R)-1-(3-(3,5-difluorophenyl)-4-oxo-4H-pyrido[1,2-a]pyrimidin-2-yl)ethyl)amino)-5-pyrimidinecarbonitrile] was 320 µM; that for `Cc1ccnc(-c2c([C@@H](C)Nc3ncnc(N)c3C#N)nc3ccccn3c2=O)c1` [4-amino-6-(((1R)-1-(3-(4-methyl-2-pyridinyl)-4-oxo-4H-pyrido[1,2-a]pyrimidin-2-yl)ethyl)amino)-5-pyrimidinecarbonitrile] was 9.27 µM.
The value for `C[C@@H](Nc1ncnc(N)c1C#N)c1nc2ccccn2c(=O)c1-c1ccccn1` [4-amino-6-(((1R)-1-(4-oxo-3-(2-pyridinyl)-4H-pyrido[1,2-a]pyrimidin-2-yl)ethyl)amino)-5-pyrimidinecarbonitrile] was 0.585 µM; that for `Cc1cccc2nc([C@@H](C)Nc3ncnc(N)c3C#N)c(-c3ccccn3)c(=O)n12` [4-amino-6-(((1R)-1-(6-methyl-4-oxo-3-(2-pyridinyl)-4H-pyrido[1,2-a]pyrimidin-2-yl)ethyl)amino)-5-pyrimidine-carbonitrile] was 10.7 µM; that for `C[C@H](Nc1ncnc(N)c1C#N)c1nc2ccccn2c(=O)c1-c1ccccc1S(C)(=O)=O` [4-amino-6-(((1S)-1-(3-(2-(methylsulfonyl)phenyl)-4-oxo-4H-pyrido[1,2-a]pyrimidin-2-yl)ethyl)amino)-5-pyrimidinecarbonitrile] was 0.0537 µM.
`C[C@H](Nc1ncnc(N)c1C#N)c1nc2ccccn2c(=O)c1-c1cc(F)cc(F)c1` [4-amino-6-(((1S)-1-(3-(3,5-difluorophenyl)-4-oxo-4H-pyrido[1,2-a]pyrimidin-2-yl)ethyl)amino)-5-pyrimidinecarbonitrile] came in with a Ki of 0.0216 µM.
The value for `C[C@H](Nc1ncnc(N)c1C#N)c1nc2ccccn2c(=O)c1-c1cccc(F)c1` [4-amino-6-(((1S)-1-(3-(3-fluorophenyl)-4-oxo-4H-pyrido[1,2-a]pyrimidin-2-yl)ethyl)amino)-5-pyrimidinecarbonitrile] was 0.0157 µM.
Take `Cc1ccnc(-c2c([C@H](C)Nc3ncnc(N)c3C#N)nc3ccccn3c2=O)c1` [4-amino-6-(((1S)-1-(3-(4-methyl-2-pyridinyl)-4-oxo-4H-pyrido[1,2-a]pyrimidin-2-yl)ethyl)amino)-5-pyrimidinecarbonitrile]: the Ki is 0.23 µM.
The value for `C[C@H](Nc1ncnc(N)c1C#N)c1nc2ccccn2c(=O)c1-c1ccccn1` [4-amino-6-(((1S)-1-(4-oxo-3-(2-pyridinyl)-4H-pyrido[1,2-a]pyrimidin-2-yl)ethyl)amino)-5-pyrimidinecarbonitrile] was 0.0424 µM; that for `Cc1cccc2nc([C@H](C)Nc3ncnc(N)c3C#N)c(-c3ccccn3)c(=O)n12` [4-amino-6-(((1S)-1-(6-methyl-4-oxo-3-(2-pyridinyl)-4H-pyrido[1,2-a]pyrimidin-2-yl)ethyl)amino)-5-pyrimidinecarbonitrile] was 0.0214 µM.
